Data as given in patent US5260280A (priority 1989, dated 1993).
“And” between values parts separate entries of the source, which are not always exact repeats. Equal values may be shown once. Read-outs that look alike come from different tables or passages of the source.

Tests used:
CHO-Kl cells = assay type: cell-based, Chinese hamster
cholera toxin CT = cholera toxin CT (Vibrio cholerae, UniProt P01556); assay type: cell-based
enterotoxin CFA/I(LT-1) = enterotoxin CFA/I(LT-1) (Escherichia coli, UniProt D0Z6T1); assay type: cell-based, E. coli
cholera toxin B-subunits = cholera toxin B-subunits (Vibrio cholerae, UniProt P01556); assay type: binding
[1] = target: enterotoxin CFA/II(LT-II) (Escherichia coli, UniProt P0CK94); assay type: cell-based, E. coli
enterotoxin LT-I = system: enterotoxin LT-I; design: species or system E. coli; settings: in vivo, po
cholera toxin = assay type: in vivo, Vibrio cholerae; settings: Balb/c mice, CT 0.25 mg oral on day 8
enterotoxin LT-II = system: enterotoxin LT-II; design: species or system E. coli; settings: in vivo, po

Sequence of enterotoxin CFA/II(LT-II) (P0CK94 whole entry, looked up): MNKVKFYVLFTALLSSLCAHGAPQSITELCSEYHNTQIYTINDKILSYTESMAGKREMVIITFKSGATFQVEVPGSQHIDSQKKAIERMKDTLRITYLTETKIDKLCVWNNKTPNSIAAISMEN
Sequence of enterotoxin CFA/I(LT-1) (D0Z6T1 whole entry, looked up): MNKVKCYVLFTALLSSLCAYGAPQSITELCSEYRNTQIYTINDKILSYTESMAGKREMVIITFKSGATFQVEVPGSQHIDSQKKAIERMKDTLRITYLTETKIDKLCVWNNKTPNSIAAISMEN
Sequence of cholera toxin CT (P01556 whole entry, looked up): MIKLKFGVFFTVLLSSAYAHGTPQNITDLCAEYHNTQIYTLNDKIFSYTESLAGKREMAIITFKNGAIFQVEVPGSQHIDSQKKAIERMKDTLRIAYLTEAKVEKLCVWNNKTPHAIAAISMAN

Substance: cholera toxin [CT]
- CHO-Kl cells morphologically altered (CHO-Kl cells): at least 70%

Substance: kappa-casein
- neutralization of the toxicity of CT against CHO-Kl cells (morphological alteration) (cholera toxin CT): neutralized the toxicity
- neutralization of the toxicity of LT-I against CHO-Kl cells (morphological alteration) (enterotoxin CFA/I(LT-1)): neutralized the toxicity
- interference with the binding of the cholera toxin B-subunits to GM1 (cholera toxin B-subunits): interfered with the binding
- neutralization of the toxicity of LT-II against CHO-Kl cells (morphological alteration) [1]: neutralized the toxicity

Substance: sialyllactose [SL]
- Rate of diarrhea (enterotoxin LT-I): 40% and 20%
- Rate of diarrhea (cholera toxin; oral 0.2 mg/day for 7 days): 20%
- Rate of diarrhea (cholera toxin; oral 0.5 mg/day for 7 days): 20%
- Rate of diarrhea (cholera toxin; oral 1.0 mg/day for 7 days): 0%
- neutralization of the toxicity of CT against CHO-Kl cells (morphological alteration) (cholera toxin CT; samples 1 or 5 micrograms/chamber, CT 10 micrograms/ml): neutralized the toxicity
- neutralization of the toxicity of LT-I against CHO-Kl cells (morphological alteration) (enterotoxin CFA/I(LT-1); samples 1 or 5 micrograms/chamber, LT-I culture supernatant): neutralized the toxicity
- interference with the binding of the cholera toxin B-subunits to GM1 (cholera toxin B-subunits; GM1-adsorbed plate, peroxidase-labeled CT-B, absorbance at 405 nm): interfered with the binding
- neutralization of the toxicity of LT-II against CHO-Kl cells (morphological alteration) ([1]; samples 1 or 5 micrograms/chamber, LT-II culture supernatant): neutralized the toxicity

Substance: kappa-casein glycomacropeptides [GMP]
- neutralization of the toxicity of CT against CHO-Kl cells (morphological alteration) (cholera toxin CT): neutralized the toxicity
- neutralization of the toxicity of LT-I against CHO-Kl cells (morphological alteration) (enterotoxin CFA/I(LT-1)): neutralized the toxicity
- interference with the binding of the cholera toxin B-subunits to GM1 (cholera toxin B-subunits): interfered with the binding
- neutralization of the toxicity of LT-II against CHO-Kl cells (morphological alteration) [1]: neutralized the toxicity

Substance: ganglioside GD3
- Rate of diarrhea (enterotoxin LT-II): 40% and 20%
